These results are taken from a melting point compilation (Tetko et al.).

Broadly, the melting point is the temperature, or range, at which the solid turns liquid.

SMILES strings stand for the structures.

Turning to `O=C(O)c1c(Br)cccc1Br`, the melting point is 150 °C.
The value for `Cc1ccc(C(=O)O)o1` was 110 °C; that for `CC1OC(Oc2ccc([N+](=O)[O-])cc2)C(O)C(O)C1O` (centres undefined) was 191 to 192 °C; that for `Cc1c(C)c(Br)c2ccccc2c1Br` was 164 °C.
`Cc1cc(C)c(O)c([N+](=O)[O-])c1`: the melting point was 70 °C.
`CCOC(=O)c1ccc(O)c(OC)c1` had a melting point of 44 °C.
`C/C(=N/NC(N)=O)C(C)Cc1ccccc1` (centres undefined): the melting point is 112 °C.
The value for `Cc1ccc(O)c2ccccc12` was 85.8 °C; that for `COc1ccc(OC)c(C(=O)O)c1` was 77 °C; that for `CN(C)CCCC1(c2ccc(F)cc2)OCc2cc(C#N)ccc21` (centres undefined) was 182 °C.
In turn, `O=C(O)c1cc2cc([N+](=O)[O-])ccc2oc1=O` showed a melting point of 200 °C.
The figure for `C[C@]12CCC(=O)C[C@@H]1CC[C@@H]1[C@@H]2CC[C@]2(C)C(=O)C=C[C@@H]12` is 172 to 173 °C; for `O=Cc1c([N+](=O)[O-])cccc1[N+](=O)[O-]` it is 119 °C.
The value for `CC12CCC(C(=CC(Cc3ccccc3)C(=O)O)C1=O)C2(C)C` (centres undefined) was 127 °C; that for `CCCCCc1ccc(C(=O)O)cc1` was 85 to 90 °C; that for `C#CC(C)(C)NC(=O)c1cc(Cl)cc(Cl)c1` was 156 °C.
The value for `O=c1c2ccccc2oc2ncccc12` was 180 to 182 °C.
Molecule `C=CCSC(=O)n1c(N)c(-c2ccccc2C)c(=O)n1C(C)C` showed a melting point of 116 °C.
The figure for `c1ccc(-c2nnc(-c3ccccn3)c(-c3ccccn3)n2)nc1` is 186 to 188 °C; for `Cc1ccc(S(=O)(=O)OC2CCC3C4CCC5CC(=O)CCC5(C)C4CCC23C)cc1` (centres undefined) it is 179 to 180 °C; for `Cc1nc(N)nc(NN)n1` it is 250 °C.
`Nc1c(Cl)cc(F)cc1Br` came in with a melting point of 56 °C.
As for `Cc1noc(-c2ccccc2)c1I`, the melting point is 66 to 68 °C.
The value for `COc1cc(Br)c(CC(=O)O)cc1OC` was 94 to 96 °C.
The figure for `N#Cc1ccc(-c2cc[nH]n2)cc1` is 141 °C.
The value for `Nc1nnc(S)s1` was 243 to 244 °C; that for `CC(CC1CCCCC1)C1CCCCC1` (centres undefined) was -22 °C; that for `O=C(Cl)c1cc([N+](=O)[O-])cc([N+](=O)[O-])c1` was 74 °C.
Molecule `O=C(O)c1cc2cc(F)ccc2[nH]1` had a melting point of 254 to 258 °C.
The value for `O=C(O)c1cc(F)c(Cl)nc1Cl` was 154 to 155 °C; that for `Cc1ccc(-c2csc(/C(C#N)=N\Nc3ccc(O)cc3)n2)cc1` was 252 °C; that for `O=C(O)c1cc(Br)c(O)c(Br)c1` was 271 to 274 °C.
The value for `O=c1[nH]cnc2c1cnn2C1CCCCC1` was 251 to 252 °C; that for `Cc1nc(-c2ccccc2)ncc1C(=O)NN` was 185 to 187 °C; that for `C(=Cc1ccccc1)CCC=Cc1ccccc1` was 82 °C.
The figure for `Clc1cc(Cl)c(I)cc1Cl` is 104 °C.
As for `O=C(C1=NOC2C(=O)N(c3ccccc3)C(=O)C12)c1ccccc1` (centres undefined), the melting point worked out at 161 °C.
The figure for `C=CCCCCCCC(=O)O` is 5 °C; for `O=C(Nc1ccccc1CCc1ccccc1)c1ccccc1` it is 166 °C.
Molecule `CS(=O)(=O)c1ccc(C=O)cc1` returned a melting point of 155 to 161 °C.
In turn, `CCCCCCCOC(=O)CC` had a melting point of -50.9 °C.
The value for `BrC1CCC(Br)C(Br)CCC(Br)C(Br)CCC1Br` (centres undefined) was 173 to 177 °C; that for `O=C(O)c1cccnc1Br` was 254 °C.
The value for `COC1=C(OC)C(C(COS(=O)(=O)c2ccc(C)cc2)OS(=O)(=O)c2ccc(C)cc2)OC1=O` (centres undefined) was 144 to 146 °C.
